Data as given in patent US12516058B2, “Small-molecule compounds for controlling endosomal toll-like receptors and therapeutic agent for autoimmune diseases using same” (priority 2020, dated 2026).
“Also recorded” adds a separate entry of the source.

Legend:
TLR5 = target: T1, TLR5 (Homo sapiens, UniProt O60602); assay: TNF-α secretion ELISA after FLA-ST in differentiated THP-1 cells; type: cell-based
T1 construct: endogenous in cells; host or cells: THP-1 (differentiated)
Protocol: In order to determine the inhibitory activity of the test-ligand against TLR5, differentiated THP-1 cells were pretreated with each compound for 1 hour and then treated with FLA-ST ([…] flagellar protein, TLR5, Invitrogen) for 4 hours. After activation of the TLRs, the supernatant was diluted and transferred to a pre-coated 96-well assay plate, and the level of human TNF-alpha secretion was measured in accordance with the manufacturer's instructions using the human TNF-alpha ELISA-kit (Invitrogen).
(§1) In order to determine the inhibitory activities of SK41, SK50, SK58 and SK64 on various TLR signaling pathways, RAW 264.7 cells were cultured along with each compound and then stimulated with different TLR agonists. The TLR agonists used herein were Pam3CSK4 (TLR1/2), FSL-1 (TLR2/6), LPS (TLR4) and FLA-ST (TLR5) as cell surface TLRs, and poly I:C (TLR3) and TL8-506 (TLR8) as endosomal TLRs.

RAW 264.7 cells = assay: MTT cytotoxicity (LC50) and therapeutic index analysis; type: cell-based, mouse; details: 24 h, among the 13 selected compounds
Protocol: RAW 264.7 cells were seeded at a density of 2×10^4 cells/well in a 96-well cell culture plate and stabilized overnight in a humidified incubator. Each well was treated with a test compound or negative control (dimethyl sulfoxide; DMSO). The plates were allowed to stand in an incubator for 24 hours. Then, the medium of the 96-well culture dish was discarded and 500 μg/ml MTT solution (InvivoGen Ltd.) was added to each well. After incubation for 3 hours, the solution was removed and the residue was incubated in DMSO (Biosesang Co. Ltd., Korea) for 30 minutes to completely dissolve the formazan dye. The absorbance was measured at a wavelength of 595 nm with a microplate colorimetric reader and normalized based on the untreated control. All cultures were performed under the same conditions as in the cell culture described above.
In order to plot the concentration-dependent LC50 curves, treatment with the SK series ligands at different concentrations up to 200 μM (the highest concentration that could be treated within the level of 0.5% DMSO) was performed. Then, cell viability and toxicity response upon treatment with ligands were analyzed by MTT as described in Examples 1-3. Cell viability in each plot was normalized from negative control (100%; no treatment) to positive control (highest concentration of test-ligand), and LC50 was determined by non-linear regression (Graph Pad Prism 7.0). In order to plot the concentration-dependent IC50 curves, pre-treatment with the SK series ligands was performed at different concentrations up to 50 μM (twice the initial concentration). Cell responses mediated by TLR7 and TLR9 (levels of TNF-α secretion) were analyzed by ELISA as described in Examples 1-4. The cytokine level in each plot was normalized from negative control (non-treated) to positive control (treatment with ligand), and IC50 was determined by non-linear regression (Graph Pad Prism 7.0).
Then, LC50 and IC50 were applied to the following function to calculate TI.

TLR8 = target: T2, TLR8 (Mus musculus, UniProt P58682); assay: TNF-α secretion ELISA after TLR8 agonist TL8-506 in RAW 264.7 cells; type: cell-based; details: SK41, SK50, SK58, SK64
T2 construct: endogenous in cells; host or cells: RAW 264.7
T2 sequence (P58682 24-1032): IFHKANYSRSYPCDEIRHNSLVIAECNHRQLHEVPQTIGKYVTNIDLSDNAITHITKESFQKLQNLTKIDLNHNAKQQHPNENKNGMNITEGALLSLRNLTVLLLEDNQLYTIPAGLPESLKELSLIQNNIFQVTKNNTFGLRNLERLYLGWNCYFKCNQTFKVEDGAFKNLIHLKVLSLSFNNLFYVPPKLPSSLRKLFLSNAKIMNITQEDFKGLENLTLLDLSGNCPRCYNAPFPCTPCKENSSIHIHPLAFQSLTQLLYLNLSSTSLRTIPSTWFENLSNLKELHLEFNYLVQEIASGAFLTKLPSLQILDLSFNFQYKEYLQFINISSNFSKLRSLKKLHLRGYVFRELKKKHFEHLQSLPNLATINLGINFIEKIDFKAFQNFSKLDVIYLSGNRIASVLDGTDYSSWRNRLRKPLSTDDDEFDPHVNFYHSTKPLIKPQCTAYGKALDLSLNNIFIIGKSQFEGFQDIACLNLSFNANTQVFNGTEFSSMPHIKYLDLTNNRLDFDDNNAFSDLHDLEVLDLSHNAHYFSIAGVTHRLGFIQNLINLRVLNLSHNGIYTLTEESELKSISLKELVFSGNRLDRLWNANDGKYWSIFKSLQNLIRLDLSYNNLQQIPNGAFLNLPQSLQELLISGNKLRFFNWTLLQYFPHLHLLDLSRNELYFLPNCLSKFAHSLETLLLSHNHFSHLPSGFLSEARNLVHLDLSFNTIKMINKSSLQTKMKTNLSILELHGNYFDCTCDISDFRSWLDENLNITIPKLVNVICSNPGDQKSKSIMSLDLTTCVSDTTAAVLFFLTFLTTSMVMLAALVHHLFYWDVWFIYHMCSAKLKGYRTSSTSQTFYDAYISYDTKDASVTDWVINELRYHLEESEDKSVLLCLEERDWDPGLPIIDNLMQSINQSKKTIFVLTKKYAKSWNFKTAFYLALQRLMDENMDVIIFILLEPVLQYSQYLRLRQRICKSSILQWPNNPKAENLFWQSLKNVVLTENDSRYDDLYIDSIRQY
Protocol: In order to determine the inhibitory activities of the test-ligand, RAW 264.7 cells were pretreated with each candidate compound for 1 hour, then treated with Pam3CSK4 (synthetic triacyl lipopeptide; TLR1/2, Invitrogen), FSL-1 (synthetic diacyl lipoprotein, TLR2/6, 100 ng/ml), lipopolysaccharide (LPS, TLR4, Sigma Aldrich), imiquimod (IMQ, TLR7, Invitrogen), and ODN2395 (type C CpG repeat motif DNA oligo(5′-[…]-3), TLR9, Bioneer) ligand for 4 hours, and treated with poly I:C (I:C repeat motif double-stranded RNA, TLR3, Invitrogen) and TL8-506 (TLR8, Invitrogen) showing delayed reactivity for 24 hours. After activation of TLR, the supernatant was diluted in an appropriate ratio so as to measure within the standard dose range, transferred to a pre-coated 96-well assay plate, and then treated with mouse TNF-alpha secretion level in accordance with the manufacturer's instructions using a mouse-TNF-alpha ELISA-kit (Invitrogen).
as §1

T1 sequence (O60602 21-858): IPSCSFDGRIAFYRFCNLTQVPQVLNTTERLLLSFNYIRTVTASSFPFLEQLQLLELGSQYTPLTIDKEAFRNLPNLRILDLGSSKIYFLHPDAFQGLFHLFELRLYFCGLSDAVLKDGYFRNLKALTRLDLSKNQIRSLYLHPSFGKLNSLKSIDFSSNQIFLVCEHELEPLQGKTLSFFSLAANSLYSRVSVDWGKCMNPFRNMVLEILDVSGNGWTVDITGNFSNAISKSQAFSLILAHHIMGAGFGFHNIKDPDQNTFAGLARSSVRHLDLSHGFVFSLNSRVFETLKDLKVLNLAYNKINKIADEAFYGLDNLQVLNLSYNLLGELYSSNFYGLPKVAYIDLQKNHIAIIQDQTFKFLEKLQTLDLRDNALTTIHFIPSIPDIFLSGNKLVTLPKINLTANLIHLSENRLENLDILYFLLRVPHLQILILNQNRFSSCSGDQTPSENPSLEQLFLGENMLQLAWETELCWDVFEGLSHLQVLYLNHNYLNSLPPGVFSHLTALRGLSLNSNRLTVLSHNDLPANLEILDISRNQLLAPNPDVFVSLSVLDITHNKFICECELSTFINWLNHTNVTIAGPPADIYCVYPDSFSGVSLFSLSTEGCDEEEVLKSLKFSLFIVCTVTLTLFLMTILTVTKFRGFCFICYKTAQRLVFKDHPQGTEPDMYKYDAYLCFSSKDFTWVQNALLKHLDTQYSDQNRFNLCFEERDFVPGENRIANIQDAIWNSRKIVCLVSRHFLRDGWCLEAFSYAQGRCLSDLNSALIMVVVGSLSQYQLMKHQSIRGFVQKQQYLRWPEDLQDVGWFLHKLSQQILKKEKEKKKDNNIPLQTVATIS

| SMILES | inhibitory activity against cell surface TLR5 (TNF-α secretion) (TLR5) | toxicity (LC50) (RAW 264.7 cells) | inhibitory activity against endosomal TLR8 (TNF-α secretion) (TLR8) |
| --- | --- | --- | --- |
| Cc1cc2c(N)c3c(nc2n1CCCN(C)C)CCCCCC3 [SK41, 1-(3-(dimethylamino)propyl)-2-methyl-5,6,7,8,9,10-hexahydro-1H-cycloocta[b]pyrrolo[3,2-e]pyridin-4-amine] | did not exhibit a specific inhibitory activity; also recorded: no inhibitory activities | lower toxicity | strong inhibitory activity; also recorded: specific inhibitory activities |
| COc1ccc2c(c1)c1c(N)c3c(nc1n2CCCN(C)C)CCCC3 [SK50, 6-(3-(dimethylamino)propyl)-9-methoxy-2,3,4,6-tetrahydro-1H-indolo[2,3-b]quinolin-11-amine] | did not exhibit a specific inhibitory activity; also recorded: no inhibitory activities | lower toxicity | strong inhibitory activity; also recorded: specific inhibitory activities |
| Cc1ccc2c(c1)c1c(N)c3c(nc1n2CCCN(C)C)CCCC3 [SK58, 6-(3-(dimethylamino)propyl)-9-methyl-2,3,4,6-tetrahydro-1H-indolo[2,3-b]quinolin-11-amine] | did not exhibit a specific inhibitory activity; also recorded: no inhibitory activities | lower toxicity | strong inhibitory activity; also recorded: specific inhibitory activities |
| COC(=O)c1ccc2c(c1)c1c(N)c3c(nc1n2CCCN(C)C)CCCC3 [SK64, Methyl 11-amino-6-(3-(dimethylamino)propyl)-2,3,4,6-tetrahydro-1H-indolo[2,3-b]quinolin-9-carboxylate] | did not exhibit a specific inhibitory activity; also recorded: no inhibitory activities | lower toxicity | strong inhibitory activity; also recorded: specific inhibitory activities |
